Laboratory results published in US20220089646A1 (THE UNIVERSITY OF QUEENSLAND, priority 2019, published 2022).
*1 amine or outer side, *2 acyl side, *3 side chain or, on linkers, in order; H or OH if unused. Where a SMILES comes first, the peptide text is derived from it. Bridges are numbered along the chain shown (N, C = ends). [ ]: non-standard residue; d: D form. NHCH2CMe2S = CC(C)(CN[*:1])S[*:2]

Assays:
DOP [1] = target: T1, DOP (Homo sapiens, UniProt P41143); test: cAMP assay with naloxone in HEK-DOP cells; type: cell-based; details: naloxone 100 μM/well; for Mean cAMP response with naloxone: HEK-DOP, peptide at approximate IC80; for Naloxone reversal of cAMP inhibition through DOP: p<0.05
T1 sequence (P41143 whole entry): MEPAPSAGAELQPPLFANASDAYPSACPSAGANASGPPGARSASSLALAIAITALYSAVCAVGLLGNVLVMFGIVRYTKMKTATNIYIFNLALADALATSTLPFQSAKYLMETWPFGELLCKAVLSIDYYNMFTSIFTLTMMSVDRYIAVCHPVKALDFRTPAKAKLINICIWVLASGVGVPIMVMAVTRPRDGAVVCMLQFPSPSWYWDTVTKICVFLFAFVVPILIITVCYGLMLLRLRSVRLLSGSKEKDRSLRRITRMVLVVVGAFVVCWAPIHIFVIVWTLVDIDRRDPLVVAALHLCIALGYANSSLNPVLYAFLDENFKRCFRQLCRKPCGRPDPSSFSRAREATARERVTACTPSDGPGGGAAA
Experimental: The preparation of buffers, cAMP standard curve, bead solutions were carried out identically to the agonist assay.
Forskolin had been optimised at 50 μM/well. Thus, the 25 mM stocks were used to prepare 300 μL of 0.3 mM Forskolin. The concentration of Forskolin prepared was 6 times the required concentration in the well to account for further dilution in the well. Forskolin solution was then made from this and used to dilute the drug solutions.
Approximate IC80 values were used for DP-7-11 and DP-7-12 to determine the ability of naloxone to reverse agonist inhibitory effect.
The desired concentration of naloxone was 100 μM/well. Thus, 100 μL of 600 μM naloxone was made up from 100 mM stock. This was 6 times the desired in-well concentration to account for further dilution in the well by Forskolin, peptide, cells and acceptor bead solutions.
Stimulation buffer was added to the 0.3 mM Forskolin solution to prepare the Forskolin only treatment solution as the positive control. Stimulation buffer used as the negative control.
The DP series compounds were assayed as follows: The different cAMP standard solutions (3 μL/well) were plated in duplicate. Naloxone solution was then plated (1 μL/well) for each treatment (DP-7-11, DP-7-12, Forskolin only and stimulation buffer) in triplicate. In the same way, stimulation buffer was plated (1 μL/well) for the same number of wells. This made up two sets of wells, antagonist and non-antagonist. Following this, the acceptor bead and cell mixture (3 μL/well) was added to the treatment wells. The plates were then covered and centrifuged at 280 g for 30 seconds before incubation on an orbital shaker for 30 minutes at room temperature. The acceptor bead mixture (3 μL/well) was then added to the cAMP standard curve wells, whilst the drug mixed with Forskolin solutions (3 μL/well) were added to the respective treatment wells in triplicate. Again, the plates were centrifuged at 280 g for 30 seconds, then covered and incubated on the orbital shaker for another 30 minutes. Finally, the donor bead mixture (10 μL/well) was added to each well. This was incubated at room temperature overnight on the orbital shaker.
The Ensight® Multimode Plate Reader was used to quantify the fluorescence units of each plate. Before reading, each plate was centrifuged at 280 g for 30 seconds. Using GraphPad Prism7® Software, cAMP concentrations were determined from the fluorescence data by fit spline/LOWESS analysis. The cAMP standard curve was used for interpolation at this point. The cAMP concentrations were then normalized to the highest cAMP concentration recorded and analyzed by one-way ANOVA for multiple comparisons. This analysis was corrected for multiple comparisons using Bonferroni. […]

DOP [2] = target: T1, DOP; test: In vitro cAMP activity at DOP (Table 10); type: cell-based; details: cAMP inhibition, four-parameter regression
Experimental: The CP series compounds were assayed as follows: The assay was performed using a 96 well ½ area plate. The different cAMP standard solutions (3 μL/well) were plated in duplicate. The different concentrations of drug (3 μL/well), and control solutions (3 μL/well) were plated in triplicate. Following this, the acceptor bead mixture (3 μL/well) was added to the respective sets—either cAMP standard curve or the treatment. This was covered and incubated on the orbital shaker for 60 minutes at 37° C. Then, the donor bead mixture (10 μL/well) was added to each well. This was incubated at room temperature overnight on the orbital shaker.
For DP-11-06 the assay was carried out in the same way as for the CP compounds except it was incubated for 30 mins at 37° C.
For the CP series compounds and DP-11-06, the Ensight® Multimode Plate Reader was used to quantify the fluorescence units of each plate. Before reading, each plate was centrifuged at 280 g for 30 seconds. Using GraphPad Prism7® Software, cAMP concentrations were determined by fit spline/LOWESS analysis. The cAMP standard curve was used for interpolation at this point. The cAMP concentrations were then normalized to the highest cAMP concentration recorded and analyzed by one-way ANOVA for multiple comparisons. The IC50 for each compound was then calculated using GraphPad Prism7® with non-linear regression analysis using four parameter curve fitting.
In this regard, a different regression analysis method was adopted on the above cAMP experiments. Particularly, a new non-linear regression (four-parameter) was adopted to better account for hill slope, thereby improving the regression fit.

[3] = Plasma stability assay (Table 10); type: in vitro ADME; details: both sexes, Wistar, rat plasma (EDTA), 37° C., 100 uM peptide, One Phase Decay, read-out: Stability (t1/2, mins) Plasma
Description: FIG. 20 is a series of graphs showing the stability of selected peptides in a trypsin (left-hand graphs) and plasma (right-hand graphs) stability assay (data normalised to concentration of each peptide at t=0, determined by LCMS, within each substrate; data analysed using One Phase Decay nonlinear regression in Prism software and each experiment performed in triplicate; mean+/−SEM);
The results shown in Table 10 utilized rat plasma. • Note that DP-7-11 and CP5 represent the same compound, and DP-7-12 and CP6 are the same compound. In this regard, a different regression analysis method was adopted on the above cAMP experiments. Particularly, a new non-linear regression (four-parameter) was adopted to better account for hill slope, thereby improving the regression fit.
Plasma was collected in house from adult mixed-gender Wistar rats, prepared using 2% EDTA as per standard practice. Peptides were added to rat plasma samples at 37° C. (in a water bath) with final concentrations of 100 uM (1:9 peptide in water:plasma) and a 50 μL sample was immediately taken and precipitated in 150 μL cold acetonitrile (9:1 ACN:water). This sample became the baseline, or t=0 min sample. Plasma with peptide was immediately returned to the water bath and subsequent 50 μL samples were taken at 5, 10, 15, 30, 60 and 120 min. At each time point, the 50 μL of plasma collected was immediately added to cold ACN. Each collected plasma sample in ACN was directly vortexed for 30 seconds and then centrifuged at room temperature (13K rpm, 5 min). 150 μL of the supernatant was taken and directly placed in glass HPLC vials for LCMS analysis.

SMILES	Mean cAMP response with naloxone (DOP [1])	Naloxone reversal of cAMP inhibition through DOP (DOP [1])	EC50 (DOP [2])	half-life at 100 uM [3]
CC1(C)CNC(=O)C[C@H](C(=O)N[C@@H](CCCNC(=N)N)C(=O)N[C@@H](CCCNC(=N)N)C(N)=O)NC(=O)[C@H](Cc2ccccc2)NC(=O)CNC(=O)[C@@H](NC(=O)[C@@H](N)Cc2ccc(O)cc2)CSS1 [DP-7-11, c(Tyr-SSa-Gly-Phe-D(Asp)-Arg-Arg)]	77.18%	reversed by naloxone	> 10000 nM	–
CC1(C)CNC(=O)C[C@@H](NC(=O)[C@@H](N)Cc2ccc(O)cc2)C(=O)NCC(=O)N[C@@H](Cc2ccccc2)C(=O)N[C@H](C(=O)N[C@@H](CCCNC(=N)N)C(=O)N[C@@H](CCCNC(=N)N)C(N)=O)CSS1 [DP-7-12, c(Tyr-D(Asp)-Gly-Phe-SSa-Arg-Arg)] (H-Y[dD]GFCRR-NH2; linker 2-5 via NHCH2CMe2S)	62.68%	reversed by naloxone	–	206 min
